Test results as given in ChEMBL document CHEMBL2429775, “The cytotoxicity of 8-O-4' neolignans from the seeds of Crataegus pinnatifida” (Bioorg Med Chem Lett, 2013).

How the values were obtained:
HeLa = experiment: Growth inhibition against human HeLa cells after 48 hrs by MTT assay; format: functional, cell-based
MCF7 = experiment: Growth inhibition against human MCF7 cells after 48 hrs by MTT assay; format: functional, cell-based; conditions: for IC50: MCF7, 48 h
HepG2 = experiment: Growth inhibition against human HepG2 cells after 48 hrs by MTT assay; format: functional, cell-based; conditions: for IC50: HepG2, 48 h
A549 = experiment: Growth inhibition against human A549 cells after 48 hrs by MTT assay; format: functional, cell-based; conditions: for IC50: A549, 48 h
HCT-116 = experiment: Growth inhibition against human HCT116 cells after 48 hrs by MTT assay; format: functional, cell-based; conditions: for IC50: HCT-116, 48 h
A375-S2 = experiment: (§1) Growth inhibition against human A375-S2 cells after 48 hrs by MTT assay; format: functional, cell-based
K562 = experiment: Growth inhibition against human K562 cells after 48 hrs by MTT assay; format: functional, cell-based; conditions: for IC50: K562, 48 h
HT-1080 = experiment: Growth inhibition against human HT1080 cells after 48 hrs by MTT assay; format: functional, cell-based; conditions: for IC50: HT-1080, 48 h
HL-60 = experiment: Growth inhibition against human HL60 cells after 48 hrs by MTT assay; format: functional, cell-based; conditions: for IC50: HL-60, 48 h
U-937 = experiment: Growth inhibition against human U937 cells after 48 hrs by MTT assay; format: functional, cell-based; conditions: for IC50: U-937, 48 h
MRC5 = experiment: Growth inhibition against human MRC5 cells after 48 hrs by MTT assay; format: cell-based; conditions: for IC50: Homo sapiens, MRC5, 48 h; for growth inhibition (GI): human, mrc5, 48 h
[1] = as §1; format: functional, cell-based; conditions: A375-S2, 48 h

Row | SMILES | growth inhibition (GI) (HeLa) | growth inhibition (GI) (MCF7) | growth inhibition (GI) (HepG2) | growth inhibition (GI) (A549) | growth inhibition (GI) (HCT-116) | growth inhibition (GI) (A375-S2) | growth inhibition (GI) (K562) | growth inhibition (GI) (HT-1080) | growth inhibition (GI) (HL-60) | IC50 (HL-60) | growth inhibition (GI) (U-937) | IC50 (MRC5) | growth inhibition (GI) (MRC5) | IC50 (HeLa) | IC50 (MCF7) | IC50 (HepG2) | IC50 (A549) | IC50 (HCT-116) | IC50 [1] | IC50 (K562) | other results
1 | O=c1[nH]cc(F)c(=O)[nH]1 [FLUOROURACIL] | Dose-dependent effect | Dose-dependent effect | Dose-dependent effect | Dose-dependent effect | Dose-dependent effect | Dose-dependent effect | Dose-dependent effect | Dose-dependent effect | Dose-dependent effect | 10.1 µM | Dose-dependent effect |  |  |  |  |  |  |  |  |  | 
2 | COc1cc([C@@H](O)[C@@H](CO)Oc2ccc(C=O)cc2OC)ccc1O | Dose-dependent effect | Dose-dependent effect | Dose-dependent effect | Dose-dependent effect | Dose-dependent effect | Dose-dependent effect | Dose-dependent effect | Dose-dependent effect | Dose-dependent effect | > 50 µM | Dose-dependent effect | > 50 µM | Dose-dependent effect | > 50 µM | > 50 µM | > 50 µM | > 50 µM | > 50 µM | > 50 µM | > 50 µM | IC50 (HT-1080): > 50 µM; IC50 (U-937): 32.2 µM
3 | COc1cc([C@@H](O)[C@@H](CO)Oc2ccc(/C=C/C=O)cc2OC)ccc1O | Dose-dependent effect | Dose-dependent effect | Dose-dependent effect | Dose-dependent effect | Dose-dependent effect | Dose-dependent effect | Dose-dependent effect | Dose-dependent effect | Dose-dependent effect | 33.5 µM | Dose-dependent effect | > 50 µM | Dose-dependent effect | > 50 µM | > 50 µM | 38.6 µM | 25.5 µM | 27.3 µM | 34.2 µM | > 50 µM | IC50 (HT-1080): 33 µM; IC50 (U-937): > 50 µM
4 | COc1cc([C@H](O)[C@@H](CO)Oc2ccc(C=O)cc2OC)ccc1O | Dose-dependent effect | Dose-dependent effect | Dose-dependent effect | Dose-dependent effect | Dose-dependent effect | Dose-dependent effect | Dose-dependent effect | Dose-dependent effect | Dose-dependent effect | > 50 µM | Dose-dependent effect | > 50 µM | Dose-dependent effect | > 50 µM | > 50 µM | > 50 µM | > 50 µM | > 50 µM | > 50 µM | > 50 µM | IC50 (HT-1080): > 50 µM; IC50 (U-937): 39.1 µM
5 | COC/C=C/c1ccc(O[C@H](CO)[C@H](OC)c2ccc(O)c(OC)c2)c(OC)c1 | Dose-dependent effect | Dose-dependent effect | Dose-dependent effect | Dose-dependent effect | Dose-dependent effect | Dose-dependent effect | Dose-dependent effect | Dose-dependent effect | Dose-dependent effect | 27.4 µM | Dose-dependent effect | > 50 µM | Dose-dependent effect | > 50 µM | > 50 µM | > 50 µM | > 50 µM | 36 µM | > 50 µM | > 50 µM | IC50 (HT-1080): 36.4 µM; IC50 (U-937): > 50 µM
6 | COc1cc([C@H](O)[C@@H](CO)Oc2ccc(/C=C/C=O)cc2OC)ccc1O | Dose-dependent effect | Dose-dependent effect | Dose-dependent effect | Dose-dependent effect | Dose-dependent effect | Dose-dependent effect | Dose-dependent effect | Dose-dependent effect | Dose-dependent effect | 36.6 µM | Dose-dependent effect | > 50 µM | Dose-dependent effect | > 50 µM | > 50 µM | 38.5 µM | 33.6 µM | 32.5 µM | 36.4 µM | > 50 µM | IC50 (HT-1080): 35.2 µM; IC50 (U-937): > 50 µM
7 | COc1cc([C@@H](OC)[C@@H](CO)Oc2ccc(/C=C/C=O)cc2OC)ccc1O | Dose-dependent effect | Dose-dependent effect | Dose-dependent effect | Dose-dependent effect | Dose-dependent effect | Dose-dependent effect | Dose-dependent effect | Dose-dependent effect | Dose-dependent effect | 25.5 µM | Dose-dependent effect | > 50 µM | Dose-dependent effect | > 50 µM | > 50 µM | 40 µM | > 50 µM | 26.4 µM | > 50 µM | > 50 µM | IC50 (HT-1080): 31.9 µM; IC50 (U-937): 2.71 µM
